Tests used:
Alternaia brassicicola = assay: Test Example C: Alternaria sooty spot on cabbage; format: in vivo; settings: 250 ppm drug solution sprayed on test plant
Text: Seeds of a test plant (cabbage variety: Shikidori) were planted and cultivated until the cotyledons extended.
<Control Value> Control value=100{1−(n/3)}

Botrytis cinerea = assay: Test Example B: Gray mold on tomato; settings: 250 ppm drug solution sprayed on test plant
Magnaporthe grisea = assay: whole plant or invertebrate; format: in vivo; settings: 250 ppm drug solution sprayed on test plant
[1] = system: Colletotrichum orbiculare; assay: Test Example H: Anthracnose on cucumber; settings: 250 ppm drug solution sprayed (2.5 ml/pot), cucumber Sagami Hanjiro, 6 to 10 days after inoculation
Puccinia recondita = assay: Test Example E: Brown rust on wheat; format: in vivo; settings: 250 ppm drug solution sprayed on test plant
[2] = system: Blumeria graminis f. sp. hordei; assay: Test Example D: Powdery mildew on barley; settings: 250 ppm drug solution sprayed on test plant
Method: Seeds of a test plant (barley variety: Akashinriki) were planted and cultivated until the first leaves appeared. In the test, the inventive compounds were dissolved into dimethyl sulfoxide-methanol mixture solution (volume ratio: 9/1), and the resultant solutions were diluted with well water to a concentration of 250 ppm to obtain the drug solutions. The drug solutions were sprayed to the test plant (2.5 ml/pot). After the drug solutions dried, conidia of Blumeria graminis f. sp. hordei were inoculated to the plant by shaking off. The degrees of disease development were investigated 6 to 10 days after the inoculation, and the effectiveness of the drug solutions was evaluated.
(§1) In Test Examples described above, the degrees of disease development were evaluated in increments of 0.05 from 0 (as no incidence of disease) to 3 (as the degree of disease development in an untreated plant group). Further, control values were calculated using the following equation based on the degree of disease development.
(§2) n=Degree of disease development in each treated group

Phytophthora infestans = assay: whole plant or invertebrate; format: in vivo; settings: 250 ppm drug solution sprayed on test plant
Plasmopara viticola = assay: Test Example G: Downy mildew on vine; settings: 250 ppm drug solution sprayed (2.5 ml/pot), grape Neomuscat, 7 to 10 days after inoculation
Method: Seeds of a test plant (grape variety: Neomuscat) were planted and cultivated until three to four first leaves appeared. In the test, the inventive compounds were dissolved into dimethyl sulfoxide-methanol mixture solution (volume ratio: 9/1), and the resultant solutions were diluted with well water to a concentration of 250 ppm to obtain the drug solutions. The drug solutions were sprayed to the test plant (2.5 ml/pot). After the drug solutions dried, a zoosporangia suspension (1-2×10^4 zoosporangia/ml) of Plasmopara viticola was inoculated to the plant by spraying. After the inoculation, the plant was kept in a mist chamber at room temperature of 20° C. for about 24 hours to promote the onset of disease. The degrees of disease development were investigated 7 to 10 days after the inoculation, and the effectiveness of the drug solutions was evaluated.
as §1, §2

Row | Compound | Test C control value (Alternaia brassicicola) | Test B control value (Botrytis cinerea) | Test A control value (Magnaporthe grisea) | Test H control value [1] | Test E control value (Puccinia recondita) | Test D control value [2] | Test F control value (Phytophthora infestans) | Test G control value (Plasmopara viticola)
1 | CC#CCOc1cc(F)c(-c2c(CCC)cc(Br)c(=O)n2CC)c(F)c1 [compound 462] | H (more than 50% control value) | H (more than 50% control value) | L (50% or less control value) | H (more than 50% control value) | H (more than 50% control value) | L (50% or less control value) | H (more than 50% control value) | L (50% or less control value)
2 | C#CCOc1cc(F)c(-c2c(CCC)cc(Cl)c(=O)n2CC)c(F)c1 [compound 463] | H (more than 50% control value) | H (more than 50% control value) | H (more than 50% control value) | H (more than 50% control value) | H (more than 50% control value) | H (more than 50% control value) | L (50% or less control value) | H (more than 50% control value)
3 | C#CCOc1cc(F)c(-c2c(CCC)cc(Br)c(=O)n2CC)c(F)c1 [compound 464] | H (more than 50% control value) | H (more than 50% control value) | L (50% or less control value) | H (more than 50% control value) | H (more than 50% control value) | H (more than 50% control value) | L (50% or less control value) | L (50% or less control value)
4 | CCn1c(-c2c(F)cc(F)cc2F)c(C(C)(OC)C(C)C)cc(Br)c1=O (centres unmarked) [compound 465] | H (more than 50% control value) | H (more than 50% control value) | H (more than 50% control value) | H (more than 50% control value) | H (more than 50% control value) | H (more than 50% control value) | L (50% or less control value) | H (more than 50% control value)
5 | CCOC(C)(c1cc(Br)c(=O)n(CC)c1-c1c(F)cc(F)cc1F)C(C)C (centres unmarked) [compound 466] | H (more than 50% control value) | L (50% or less control value) | L (50% or less control value) | L (50% or less control value) | L (50% or less control value) | H (more than 50% control value) | L (50% or less control value) | L (50% or less control value)
6 | CCn1c(-c2c(F)cc(OC)cc2F)c(C(C)(OC)C(C)C)cc(Br)c1=O (centres unmarked) [compound 467] | H (more than 50% control value) | H (more than 50% control value) | H (more than 50% control value) | H (more than 50% control value) | H (more than 50% control value) | H (more than 50% control value) | L (50% or less control value) | H (more than 50% control value)
7 | CCOC(C)(c1cc(Br)c(=O)n(CC)c1-c1c(F)cc(OC)cc1F)C(C)C (centres unmarked) [compound 468] | H (more than 50% control value) | H (more than 50% control value) | H (more than 50% control value) | H (more than 50% control value) | H (more than 50% control value) | H (more than 50% control value) | H (more than 50% control value) | H (more than 50% control value)
